Laboratory results: ChEMBL document CHEMBL5543126, “Combinatorial Ubiquitination REal-time PROteolysis (CURE-PROs): A Modular Platform for Generating Reversible, Self-Assembling Bifunctional Targeted Degraders” (J Med Chem, 2024)
Blank lines part the entries; values can stand above or below the compound they belong to. Activity calls are given as the source filed them. The calls are words filed in the database; no cut-off is given here.

What was measured:
BRD2/CRBN (Homo sapiens) = assay: PROTAC activity at BRD2/CRBN in human HeLa cells assessed as induction of BRD2 degradation at 10 uM in presence of BRD3 ligand based (3-((4-((4S)-4-(2-(ethylamino)-2-oxoethyl)-8-methoxy-1-methyl4Hbenzo[f][1,2,4]triazolo[4,3-a][1,4]diazepin-6-yl)phenyl)thio)phenyl)boronic acid incubated for 24 hrs …
[1] = molecular target: T1, Protein cereblon/Bromodomain-containing protein 4 (Homo sapiens) (UniProt O60885+Q96SW2); assay: PROTAC activity at BRD4/CRBN in human HeLa cells assessed as induction of BRD4 degradation at 10 uM incubated for 24 hrs in presence of BRD4 based ligand (3-((4S)-6-(4-chlorophenyl)-4-(2-(ethylamino)-2-oxoethyl)-1-methyl4H-benzo[f][1,2,4]triazolo[4,3-a][1,4]diazepin-8-yl)phenyl)boronic acid by Combinatorial Ubiquitination Real-time PROteolysis analysis; assay type: cell-based
[2] = molecular target: T2, Protein cereblon/Bromodomain-containing protein 3 (Homo sapiens) (UniProt Q15059+Q96SW2); assay: PROTAC activity at BRD3/CRBN in human HeLa cells assessed as induction of BRD3 degradation at 10 uM in presence of BRD3 ligand based (3-((4-((4S)-4-(2-(ethylamino)-2-oxoethyl)-8-methoxy-1-methyl4Hbenzo[f][1,2,4]triazolo[4,3-a][1,4]diazepin-6-yl)phenyl)thio)phenyl)boronic acid incubated for 24 hrs by Combinatorial Ubiquitination Real-time PROteolysis analysis; assay type: cell-based
[3] = molecular target: T1, Protein cereblon/Bromodomain-containing protein 4 (Homo sapiens); assay: PROTAC activity at BRD4/CRBN in human HeLa cells assessed as induction of BRD4 degradation at 10 uM incubated for 24 hrs in presence of JQ1 by Western blot analysis; assay type: cell-based
[4] = molecular target: T1, Protein cereblon/Bromodomain-containing protein 4 (Homo sapiens); assay: PROTAC activity at BRD4/CRBN in human HeLa cells assessed as induction of BRD4 degradation at 10 uM incubated for 24 hrs in presence of CRBN based ligand N-((2-(2,6-dioxopiperidin-3-yl)-1,3-dioxoisoindolin-4-yl)methyl)-2,3-dihydroxybenzamide by Combinatorial Ubiquitination Real-time PROteolysis analysis; assay type: cell-based
[5] = molecular target: T2, Protein cereblon/Bromodomain-containing protein 3 (Homo sapiens); assay: PROTAC activity at BRD3/CRBN in human HeLa cells assessed as induction of BRD3 degradation at 10 uM in presence of CRBN ligand based N-((2-(2,6-dioxopiperidin-3-yl)-1,3-dioxoisoindolin-4-yl)methyl)-2,3-dihydroxybenzamide incubated for 24 hrs by Combinatorial Ubiquitination Real-time PROteolysis analysis; assay type: cell-based
[6] = molecular target: T1, Protein cereblon/Bromodomain-containing protein 4 (Homo sapiens); assay: PROTAC activity at BRD4/CRBN in human HeLa cells assessed as induction of BRD4 degradation in presence of N-((2-(2,6-dioxopiperidin-3-yl)-1,3-dioxoisoindolin-4-yl)methyl)-2,3-dihydroxybenzamide by Combinatorial Ubiquitination Real-time PROteolysis analysis; assay type: cell-based; details: dose 0.1-10 µM
[7] = molecular target: T2, Protein cereblon/Bromodomain-containing protein 3 (Homo sapiens); assay: PROTAC activity at BRD2/CRBN in human HeLa cells assessed as induction of BRD2 degradation at 10 uM in presence of CRBN ligand based N-((2-(2,6-dioxopiperidin-3-yl)-1,3-dioxoisoindolin-4-yl)methyl)-2,3-dihydroxybenzamide incubated for 24 hrs by Combinatorial Ubiquitination Real-time PROteolysis analysis; assay type: cell-based
[8] = molecular target: T3, BRD4/E3 ubiquitin-protein ligase Mdm2 (Homo sapiens) (UniProt Q00987+O60885); assay: (§1) PROTAC activity at MDM2/BRD4 in human HCT-116 cells assessed as induction of BRD4 degradation incubated for 6 hrs in presence of BRD4 ligand based (86)-N-(2-(2-(((4S)-6-(4-chlorophenyl)-4-(2-(ethylamino)-2-oxoethyl)-1-methyl-4H-benzo[f][1,2,4]triazolo[4,3-a][1,4]diazepin-8-yl)oxy)ethoxy)ethyl)-2,3-dihydroxybenzamide by Combinatorial Ubiquitination Real-time PROteolysis analysis; assay type: cell-based
[9] = molecular target: T3, BRD4/E3 ubiquitin-protein ligase Mdm2 (Homo sapiens); assay: as §1, with “activation” for “induction”, “caspase 3/7” for “BRD4 degradation”; assay type: cell-based
[10] = molecular target: T3, BRD4/E3 ubiquitin-protein ligase Mdm2 (Homo sapiens); assay: PROTAC activity at MDM2/BRD4 in human HCT-116 cells assessed as downregulation of SLC19A1 level at 10 uM incubated for 24 hrs by qPCR analysis; assay type: cell-based
[11] = molecular target: T3, BRD4/E3 ubiquitin-protein ligase Mdm2 (Homo sapiens); assay: PROTAC activity at MDM2/BRD4 in human HCT-116 cells assessed as downregulation of SLC19A1 level at 10 uM incubated for 24 hrs in presence of BRD4 ligand based (86)-N-(2-(2-(((4S)-6-(4-chlorophenyl)-4-(2-(ethylamino)-2-oxoethyl)-1-methyl-4H-benzo[f][1,2,4]triazolo[4,3-a][1,4]diazepin-8-yl)oxy)ethoxy)ethyl)-2,3-dihydroxybenzamid by qPCR based Combinatorial Ubiquitination Real-time PROteolysis analysis; assay type: cell-based
NAMALVA [12] = assay: Antiproliferative activity against human NAMALVA cells assessed as reduction in cell viability incubated for 72 hrs by celltiter-glo assay; assay type: functional, cell-based
[13] = molecular target: T3, BRD4/E3 ubiquitin-protein ligase Mdm2 (Homo sapiens); assay: PROTAC activity at MDM2/BRD4 in human HCT-116 cells assessed as induction of BRD4 degradation incubated for 6 hrs; assay type: cell-based
NAMALVA [14] = assay: Antiproliferative activity against human NAMALVA cells assessed as reduction in cell viability incubated for 72 hrs in presence of BRD4 ligand based (86)-N-(2-(2-(((4S)-6-(4-chlorophenyl)-4-(2-(ethylamino)-2-oxoethyl)-1-methyl-4H-benzo[f][1,2,4]triazolo[4,3-a][1,4]diazepin-8-yl)oxy)ethoxy)ethyl)-2,3-dihydroxybenzamide by celltiter-glo assay; assay type: functional
[15] = molecular target: T3, BRD4/E3 ubiquitin-protein ligase Mdm2 (Homo sapiens); assay: PROTAC activity at MDM2/BRD4 in human HCT-116 cells assessed as activation of caspase3/7 incubated for 6 hrs in presence of MDM2 ligand based (4-((2-(4-((4S,5R)-4,5-bis(4-chlorophenyl)-2-(2-isopropoxy-4-methoxyphenyl)-4,5-dihydro-1H-imidazole-1-carbonyl)-2-oxopiperazin-1-yl)ethyl)carbamoyl)phenyl)boronic acid by Combinatorial Ubiquitination Real-time PROteolysis analysis; assay type: cell-based
[16] = molecular target: T3, BRD4/E3 ubiquitin-protein ligase Mdm2 (Homo sapiens); assay: PROTAC activity at MDM2/BRD4 in human HCT-116 cells assessed as downregulation of SLC19A1 level at 10 uM incubated for 24 hrs in presence of MDM2 ligand based (4-((2-(4-((4S,5R)-4,5-bis(4-chlorophenyl)-2-(2-isopropoxy-4-methoxyphenyl)-4,5-dihydro-1H-imidazole-1-carbonyl)-2-oxopiperazin-1-yl)ethyl)carbamoyl)phenyl)boronic acid by qPCR based Combinatorial Ubiquitination Real-time PROteolysis analysis; assay type: cell-based
[17] = molecular target: T3, BRD4/E3 ubiquitin-protein ligase Mdm2 (Homo sapiens); assay: PROTAC activity at MDM2/BRD4 in human HCT-116 cells assessed as induction of BRD4 degradation incubated for 6 hrs in presence of MDM2 ligand based (4-((2-(4-((4S,5R)-4,5-bis(4-chlorophenyl)-2-(2-isopropoxy-4-methoxyphenyl)-4,5-dihydro-1H-imidazole-1-carbonyl)-2-oxopiperazin-1-yl)ethyl)carbamoyl)phenyl)boronic acid by Combinatorial Ubiquitination Real-time PROteolysis analysis; assay type: cell-based
NAMALVA [18] = assay: Antiproliferative activity against human NAMALVA cells assessed as reduction in cell viability incubated for 72 hrs in presence of MDM2 ligand based (4-((2-(4-((4S,5R)-4,5-bis(4-chlorophenyl)-2-(2-isopropoxy-4-methoxyphenyl)-4,5-dihydro-1H-imidazole-1-carbonyl)-2-oxopiperazin-1-yl)ethyl)carbamoyl)phenyl)boronic acid by celltiter-glo assay; assay type: functional
[19] = molecular target: von Hippel-Lindau disease tumor suppressor/Bromodomain-containing protein 4 (Homo sapiens, UniProt O60885+P40337); assay: PROTAC activity at BRD4/VHL in human MCF7 cells assessed as reduction in BRD4 level incubated for 24 hrs in presence of VHL based ligand (2S,4R)-1-((S)-2-(3,4-dihydroxybenzamido)-3,3-dimethylbutanoyl)-4-hydroxy-N-(4-(4-methylthiazol-5-yl)benzyl)pyrrolidine-2-carboxamide by Western blot based Combinatorial Ubiquitination Real-time PROteolysis analysis; assay type: cell-based
[20] = molecular target: T1, Protein cereblon/Bromodomain-containing protein 4 (Homo sapiens); assay: PROTAC activity at BRD4/CRBN in human HeLa cells assessed as induction of BRD4 degradation at 0.1 to 10 uM in presence of N-((2-(2,6-dioxopiperidin-3-yl)-1,3-dioxoisoindolin-4-yl)methyl)-2,3-dihydroxybenzamide by Combinatorial Ubiquitination Real-time PROteolysis analysis; assay type: cell-based; details: dose 0.1-10 µM

T2 sequence (Q15059 2-726 limits assumed): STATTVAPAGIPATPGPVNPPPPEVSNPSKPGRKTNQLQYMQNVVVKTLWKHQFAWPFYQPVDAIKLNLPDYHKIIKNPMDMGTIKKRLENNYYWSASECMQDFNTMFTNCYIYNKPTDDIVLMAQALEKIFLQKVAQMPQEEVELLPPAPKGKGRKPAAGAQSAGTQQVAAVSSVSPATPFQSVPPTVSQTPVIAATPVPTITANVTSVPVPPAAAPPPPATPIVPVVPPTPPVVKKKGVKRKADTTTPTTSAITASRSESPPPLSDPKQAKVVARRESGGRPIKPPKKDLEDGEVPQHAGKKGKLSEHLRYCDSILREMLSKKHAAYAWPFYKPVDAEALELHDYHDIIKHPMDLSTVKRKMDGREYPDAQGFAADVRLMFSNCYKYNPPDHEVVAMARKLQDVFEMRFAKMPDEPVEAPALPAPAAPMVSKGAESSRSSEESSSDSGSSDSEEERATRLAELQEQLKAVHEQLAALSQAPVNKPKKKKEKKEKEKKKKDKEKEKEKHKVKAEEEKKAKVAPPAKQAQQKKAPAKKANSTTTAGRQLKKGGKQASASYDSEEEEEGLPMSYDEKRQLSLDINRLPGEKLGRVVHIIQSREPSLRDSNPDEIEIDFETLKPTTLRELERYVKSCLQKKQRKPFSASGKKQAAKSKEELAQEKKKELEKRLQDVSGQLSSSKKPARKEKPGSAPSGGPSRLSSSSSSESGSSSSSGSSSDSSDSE
T2 sequence (Q96SW2 whole entry partner): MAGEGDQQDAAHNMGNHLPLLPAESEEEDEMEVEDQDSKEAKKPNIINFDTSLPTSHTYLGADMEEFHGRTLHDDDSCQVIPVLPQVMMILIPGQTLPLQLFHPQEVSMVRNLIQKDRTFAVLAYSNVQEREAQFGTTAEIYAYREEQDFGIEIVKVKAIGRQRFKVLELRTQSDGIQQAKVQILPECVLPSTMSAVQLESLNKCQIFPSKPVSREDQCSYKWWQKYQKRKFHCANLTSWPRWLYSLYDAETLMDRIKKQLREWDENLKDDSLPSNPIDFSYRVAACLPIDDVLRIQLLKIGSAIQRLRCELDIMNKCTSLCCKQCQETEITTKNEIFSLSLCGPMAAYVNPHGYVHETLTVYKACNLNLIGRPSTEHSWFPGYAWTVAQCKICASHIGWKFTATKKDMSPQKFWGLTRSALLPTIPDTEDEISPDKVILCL
T3 sequence (Q00987 whole entry, looked up, other chains not shown): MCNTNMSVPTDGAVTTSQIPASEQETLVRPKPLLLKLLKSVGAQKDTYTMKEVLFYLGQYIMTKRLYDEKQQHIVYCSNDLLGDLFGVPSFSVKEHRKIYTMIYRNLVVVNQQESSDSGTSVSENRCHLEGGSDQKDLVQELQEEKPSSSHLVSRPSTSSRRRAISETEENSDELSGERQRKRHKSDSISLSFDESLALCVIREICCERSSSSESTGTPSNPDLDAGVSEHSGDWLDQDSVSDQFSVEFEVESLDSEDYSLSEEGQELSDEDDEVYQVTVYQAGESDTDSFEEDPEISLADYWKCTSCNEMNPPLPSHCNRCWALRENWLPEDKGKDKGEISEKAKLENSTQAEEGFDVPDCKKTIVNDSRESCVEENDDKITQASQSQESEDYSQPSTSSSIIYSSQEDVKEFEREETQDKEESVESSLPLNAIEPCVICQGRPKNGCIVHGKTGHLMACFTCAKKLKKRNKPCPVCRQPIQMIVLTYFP
T1 sequence (Q96SW2 whole entry, looked up, other chains not shown): as the sequence (Q96SW2 whole entry partner) above
Sequence of von Hippel-Lindau disease tumor suppressor/Bromodomain-containing protein 4 (P40337 whole entry, looked up, other chains not shown): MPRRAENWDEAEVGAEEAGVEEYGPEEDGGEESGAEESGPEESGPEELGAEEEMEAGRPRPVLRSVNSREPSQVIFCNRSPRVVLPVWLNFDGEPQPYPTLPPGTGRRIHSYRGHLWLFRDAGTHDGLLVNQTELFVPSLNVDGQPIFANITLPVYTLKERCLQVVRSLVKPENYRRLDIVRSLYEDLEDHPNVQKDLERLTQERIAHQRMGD

Activity (BRD2/CRBN (Homo sapiens)): Active | Activity [1]: Active | Activity [2]: Active | Activity [3]: inactive
SMILES: O=C1CCC(N2C(=O)c3cccc(CNC(=O)c4cccc(O)c4O)c3C2=O)C(=O)N1 (configuration not stated)

SMILES: CCNC(=O)C[C@@H]1N=C(c2ccc(Cl)cc2)c2cc(-c3cccc(B(O)O)c3)ccc2-n2c(C)nnc21
Activity [3]: inactive | Activity [4]: Active

SMILES: CCNC(=O)C[C@@H]1N=C(c2ccc(Sc3cccc(B(O)O)c3)cc2)c2cc(OC)ccc2-n2c(C)nnc21
Activity [5]: Active | Activity [6]: Dose-Dependent Effect | Activity [7]: Active

SMILES: CCNC(=O)C[C@@H]1N=C(c2ccc(Cl)cc2)c2cc(OCCOCCNC(=O)c3cccc(O)c3O)ccc2-n2c(C)nnc21
Activity [8]: Active | Activity [9]: Active | Activity [10]: inactive | Activity [11]: Active | IC50 (NAMALVA [12]): 51300 nM | Activity [13]: inactive | IC50 (NAMALVA [14]): 724 nM

Activity [15]: Active | Activity [16]: Active | Activity [17]: Active
SMILES: COc1ccc(C2=N[C@H](c3ccc(Cl)cc3)[C@@H](c3ccc(Cl)cc3)N2C(=O)N2CCN(CCNC(=O)c3ccc(B(O)O)cc3)C(=O)C2)c(OC(C)C)c1
IC50 (NAMALVA [18]): 724 nM

Activity [19]: inactive
SMILES: Cc1ncsc1-c1ccc(CNC(=O)[C@@H]2C[C@@H](O)CN2C(=O)[C@@H](NC(=O)c2ccc(O)c(O)c2)C(C)(C)C)cc1

SMILES: CCNC(=O)C[C@@H]1N=C(c2ccc(Sc3ccccc3)cc2)c2cc(OC)ccc2-n2c(C)nnc21
Activity [20]: inactive
